The values below are quoted from earlier work in patent US6673333B1, “Functional MRI agents for cancer imaging” (Research Corporation Technologies, Inc., priority 2000, dated 2004).

The structures appear in SMILES notation.

For series [1] the following is noted: thermodynamic stability of the Gd(III) chelate complex.
For series [2] the following is noted: at physiological pH.

As for `O=C([O-])CN(CCN(CC(=O)[O-])CC(=O)[O-])CCN(CC(=O)[O-])CC(=O)[O-].[Gd+3]` [Gd(DTPA)^2−], the “stability constant (K), formation constant, logK” value in series [1] is 22.4.
As to `O=C([O-])CN1CCN(CC(=O)[O-])CCN(CC(=O)O)CCN(CC(=O)[O-])CC1.[Gd+3]` [Gd-DOTA], in series [1], the “stability constant (K), formation constant, logK” value is on record as 28.5. Further, in series [2], the dissociation kinetics result is given as “very slow”.
